# Results published in patent US6090785A, “Substituted N-carboxyalkylpeptidyl derivatives as antidegenerative agents” (Merck & Co., Inc., priority 1992, dated 2000).
# Key:
# Format in all cases: biochemical
# [1] = biological target: T1, collagenase (Homo sapiens, UniProt P03956); assay: Collagenase inhibition assay with fluorogenic Dnp-peptide substrate (method of Stack et al); conditions: CGase = collagenase
# T1 sequence (P03956 100-469): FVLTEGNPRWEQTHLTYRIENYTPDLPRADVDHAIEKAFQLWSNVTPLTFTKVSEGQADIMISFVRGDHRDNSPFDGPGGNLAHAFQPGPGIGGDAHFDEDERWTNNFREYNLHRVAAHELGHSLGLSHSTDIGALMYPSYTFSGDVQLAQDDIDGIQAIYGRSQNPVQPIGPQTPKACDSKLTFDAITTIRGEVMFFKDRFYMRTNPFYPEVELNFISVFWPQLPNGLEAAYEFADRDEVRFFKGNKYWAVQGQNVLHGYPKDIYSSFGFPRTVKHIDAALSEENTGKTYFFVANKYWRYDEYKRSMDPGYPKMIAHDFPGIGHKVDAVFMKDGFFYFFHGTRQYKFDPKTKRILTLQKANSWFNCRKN
# Description: (§1) The capacity of representative compounds of formula I to inhibit collagenase and gelatinase lysis may be determined using the method of M. S. Stack et al, Biol. Chem 264, 4277 (1989). In such assay, a fluorogenic substrate Dnp-Pro-Leu-Gly-Leu-Trp-Ala-D-Arg.(SEQ ID NO:2) where the "Dnp" designation indicates a "dinitrophenyl" group and this group is indicated by "Xaa" in the Sequence Listing. is used. The tryptophan fluorescence is efficiently quenched by the dinitrophenyl group but when it is hydrolyzed by collagenase or gelatinase, there is increased fluorescence with cleavage occurring at the Gly-Leu bond.
# (§2) Assays were performed in 0.05M Tris, 5 mM CaCl2, 0.2M NaCl up to 20% Me2 SO, pH 7.7 at either […] or 37° C. using peptide concentrations of 2.5 to 40 μM.
# (§3) After addition of enzyme to initiate the reaction, the initial rate of substrate hydrolysis is determined by monitoring the increase in fluorescence emission at 346 nm. using an excitation wavelength of 280 nm. To determine the inhibitory activity the hydrolysis is measured fluorimetrically in the presence of increasing concentrations of the inhibitor and the Ki is determined.
# [2] = biological target: stromelysin (Homo sapiens, UniProt P08254); assay: Stromelysin inhibition assay (HPLC/fluorometric determination of remaining peptide substrate); conditions: SLN = stromelysin; substrate 5 μM, enzyme 1.5 nM
# Method: Briefly the assay may be carried out by incubating for four hours the inhibitor in dimethyl sulfoxide (DMSO) and 25 μl of 0.3726 μg/ml stromelysin, then adding 60 μl of 11.24 μM substrate and incubating the resulting mixture for 18 hours. The final concentrations of the substrate is 5 μM and of the enzyme 1.5 nM. At this time 50 μl of 0.3 M H3 PO4 is added and a portion of the mixture injected onto an HPLC column and the remaining substrate determined by fluorometric detection. The area of the substrate is quantitated and is plotted as a function of the inhibitor concentration. The Ki is calculated using the following equation: [formula] where area inhibited and ^area control are integrated HPLC areas for substrate for inhibited and uninhibited reactions, respectively; [I] is the inhibitor concentration; [S] is the substrate concentration.
# [3] = biological target: gelatinase; assay: Gelatinase inhibition assay with fluorogenic Dnp-peptide substrate (method of Stack et al); conditions: Gel = gelatinase
# Description: as §1, §2, §3
# stromelysin, sequence (P08254 100-477): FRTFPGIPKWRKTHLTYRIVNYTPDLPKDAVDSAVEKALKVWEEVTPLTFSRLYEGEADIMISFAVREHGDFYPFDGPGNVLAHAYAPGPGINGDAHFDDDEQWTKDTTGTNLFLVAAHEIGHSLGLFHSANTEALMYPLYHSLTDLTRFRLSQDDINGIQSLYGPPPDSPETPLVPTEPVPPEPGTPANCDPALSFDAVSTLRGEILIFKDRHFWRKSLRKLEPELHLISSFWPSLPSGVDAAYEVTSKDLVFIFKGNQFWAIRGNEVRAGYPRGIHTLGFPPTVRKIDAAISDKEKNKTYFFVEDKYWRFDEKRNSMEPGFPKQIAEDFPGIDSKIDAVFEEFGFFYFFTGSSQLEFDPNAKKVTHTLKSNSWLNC
Compound,Ki [1],Ki [2],Ki [3]
CC(C)C[C@H](NC(=O)[C@H](CCCCCCCCCN)N[C@H](C)C(=O)O)C(=O)Nc1ccccc1 [Compound 9a],> 10 µM,0.24 µM,0.5 µM
CCCCCCCC[C@H](N[C@H](C)C(=O)O)C(=O)N[C@@H](CC(C)C)C(=O)Nc1ccccc1 [Compound 9b],> 10 µM,0.57 µM,0.34 µM
CCCCCCCC[C@H](N[C@H](C)C(=O)O)C(=O)N[C@@H](CCCNC(=N)N)C(=O)Nc1ccccc1 [Compound 9c],–,1.6 µM,0.12 µM
C[C@@H](N[C@@H](CCCCCCCCCN)C(=O)N[C@@H](CCCNC(=N)N)C(=O)Nc1ccccc1)C(=O)O [Compound 9d],–,0.37 µM,0.11 µM
CCCCCCCCCC[C@H](N[C@H](C)C(=O)O)C(=O)N[C@@H](CC(C)C)C(=O)Nc1ccccc1 [Compound 9e],–,0.85 µM,0.56 µM
